In ChEMBL document CHEMBL3526086, “Identification of the oxidative and conjugative enzymes involved in the biotransformation of brivanib” (Drug Metab Dispos, 2012):

Columns and labels:
Assay type in all cases: ADME
[1] = Activity of CYP3A4/CYP1A2 in human liver microsomes assessed as enzyme-mediated (R)-1-(4-(4-fluoro-2-(hydroxymethyl)-1H-indol-5-yloxy)-5-methylpyrrolo[1,2-f][1,2,4]triazin-6-yloxy)propan-2-ol formation per mg protein in presence of NADPH
[2] = Activity of CYP3A4/CYP1A2 in human liver microsomes assessed as intrinsic clearance for enzyme-mediated (R)-1-(4-(4-fluoro-2-(hydroxymethyl)-1H-indol-5-yloxy)-5-methylpyrrolo[1,2-f][1,2,4]triazin-6-yloxy)propan-2-ol formation per mg protein in presence of NADPH
Liver microsome = assay: Drug metabolism in human liver microsomes assessed as (R)-1-(4-(4-fluoro-2-(hydroxymethyl)-1H-indol-5-yloxy)-5-methylpyrrolo[1,2-f][1,2,4]triazin-6-yloxy)propan-2-ol formation at 2 and 20 uM for 30 mins by LC/MS analysis in presence of antibody for CYP3A4/5; settings: 0.5 h
Cytochrome P450 2C8 = molecular target: T1, Cytochrome P450 2C8 (Homo sapiens, UniProt P10632); assay: Drug metabolism assessed as human CYP2C8-mediated (R)-1-(4-(4-fluoro-2-(hydroxymethyl)-1H-indol-5-yloxy)-5-methylpyrrolo[1,2-f][1,2,4]triazin-6-yloxy)propan-2-ol formation at 2 and 20 uM for 20 mins by LC/MS analysis in presence of NADPH; settings: recombinant enzyme
T1 sequence (P10632 whole entry): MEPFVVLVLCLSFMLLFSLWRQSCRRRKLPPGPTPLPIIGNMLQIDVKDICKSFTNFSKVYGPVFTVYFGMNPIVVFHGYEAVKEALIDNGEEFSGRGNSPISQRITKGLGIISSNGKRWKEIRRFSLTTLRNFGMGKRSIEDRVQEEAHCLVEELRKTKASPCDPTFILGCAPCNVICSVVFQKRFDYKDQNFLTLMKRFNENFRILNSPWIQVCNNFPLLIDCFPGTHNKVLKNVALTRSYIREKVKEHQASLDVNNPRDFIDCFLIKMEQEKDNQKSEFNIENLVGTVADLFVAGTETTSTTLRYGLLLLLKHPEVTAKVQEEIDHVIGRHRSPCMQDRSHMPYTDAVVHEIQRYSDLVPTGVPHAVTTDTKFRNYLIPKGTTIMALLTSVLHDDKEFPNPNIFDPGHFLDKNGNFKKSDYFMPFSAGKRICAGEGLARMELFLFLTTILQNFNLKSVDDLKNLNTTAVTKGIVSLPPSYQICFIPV

Cytochrome P450 1A2 [3] = molecular target: T2, Cytochrome P450 1A2 (Homo sapiens, UniProt P05177); assay: Drug metabolism assessed as human CYP1A2-mediated (R)-1-(4-(4-fluoro-2-(hydroxymethyl)-1H-indol-5-yloxy)-5-methylpyrrolo[1,2-f][1,2,4]triazin-6-yloxy)propan-2-ol formation at 2 and 20 uM for 20 mins by LC/MS analysis in presence of NADPH; settings: recombinant enzyme
T2 sequence (P05177 whole entry): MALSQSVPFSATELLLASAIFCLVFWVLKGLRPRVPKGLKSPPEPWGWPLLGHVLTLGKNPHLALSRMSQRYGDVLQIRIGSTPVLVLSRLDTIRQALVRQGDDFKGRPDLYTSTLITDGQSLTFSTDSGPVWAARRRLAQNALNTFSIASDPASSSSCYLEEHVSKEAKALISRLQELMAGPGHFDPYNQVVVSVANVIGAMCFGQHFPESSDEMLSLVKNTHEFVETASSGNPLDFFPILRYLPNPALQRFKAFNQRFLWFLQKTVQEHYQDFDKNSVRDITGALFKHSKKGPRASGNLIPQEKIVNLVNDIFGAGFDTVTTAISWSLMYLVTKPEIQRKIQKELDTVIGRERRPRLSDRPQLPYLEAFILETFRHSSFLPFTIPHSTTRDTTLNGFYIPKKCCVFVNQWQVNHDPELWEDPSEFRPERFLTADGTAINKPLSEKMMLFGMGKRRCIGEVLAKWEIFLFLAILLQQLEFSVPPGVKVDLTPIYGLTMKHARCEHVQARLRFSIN

Cytochrome P450 2B6 = molecular target: T3, Cytochrome P450 2B6 (Homo sapiens, UniProt P20813); assay: Drug metabolism in human liver microsomes assessed as 50 uM orphenadrine-mediated inhibition of CYP2B6-mediated (R)-1-(4-(4-fluoro-2-(hydroxymethyl)-1H-indol-5-yloxy)-5-methylpyrrolo[1,2-f][1,2,4]triazin-6-yloxy)propan-2-ol formation at 2 and 20 uM for 30 mins by LC/MS analysis; settings: 0.5 h
T3 sequence (P20813 whole entry): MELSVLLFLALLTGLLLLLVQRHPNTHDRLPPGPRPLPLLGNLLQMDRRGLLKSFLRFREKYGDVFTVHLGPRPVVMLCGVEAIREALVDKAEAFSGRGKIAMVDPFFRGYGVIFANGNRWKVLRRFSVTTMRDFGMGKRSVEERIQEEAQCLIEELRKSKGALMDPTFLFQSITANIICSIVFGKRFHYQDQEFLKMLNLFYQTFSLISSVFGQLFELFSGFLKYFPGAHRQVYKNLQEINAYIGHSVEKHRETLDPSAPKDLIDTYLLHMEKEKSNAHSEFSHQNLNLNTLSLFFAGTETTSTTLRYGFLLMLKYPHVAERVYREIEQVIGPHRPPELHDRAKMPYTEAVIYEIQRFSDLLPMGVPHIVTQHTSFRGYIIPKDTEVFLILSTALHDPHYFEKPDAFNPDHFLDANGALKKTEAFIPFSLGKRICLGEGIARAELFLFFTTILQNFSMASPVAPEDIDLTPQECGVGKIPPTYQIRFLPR

Cytochrome P450 1A1 = Cytochrome P450 1A1 (Homo sapiens, UniProt P04798); assay: Drug metabolism assessed as human CYP1A1-mediated (R)-1-(4-(4-fluoro-2-(hydroxymethyl)-1H-indol-5-yloxy)-5-methylpyrrolo[1,2-f][1,2,4]triazin-6-yloxy)propan-2-ol formation at 2 and 20 uM for 20 mins by LC/MS analysis in presence of NADPH; settings: recombinant enzyme
Sulfotransferase 2A1 = Sulfotransferase 2A1 (Homo sapiens, UniProt Q06520); assay: Drug metabolism assessed as human SULT2A1-mediated (R)-1-(4-(4-fluoro-2-methyl-1H-indol-5-yloxy)-5-methylpyrrolo[1,2-f][1,2,4]triazin-6-yloxy)propane-2-sulfonic acid formation at 2 and 20 uM for 30 mins by LC/MS analysis in presence of PAPS; settings: 0.5 h
Cytochrome P450 1A2 [4] = molecular target: T2, Cytochrome P450 1A2; assay: Activity of human CYP1A2 assessed as intrinsic clearance for enzyme-mediated (R)-1-(4-(4-fluoro-2-(hydroxymethyl)-1H-indol-5-yloxy)-5-methylpyrrolo[1,2-f][1,2,4]triazin-6-yloxy)propan-2-ol formation per picomole enzyme in presence of NADPH
Cytochrome P450 2E1 = Cytochrome P450 2E1 (Homo sapiens, UniProt P05181); assay: Drug metabolism in human liver microsomes assessed as monoclonal antibody-mediated inhibition of CYP2E1-mediated (R)-1-(4-(4-fluoro-2-(hydroxymethyl)-1H-indol-5-yloxy)-5-methylpyrrolo[1,2-f][1,2,4]triazin-6-yloxy)propan-2-ol formation at 2 and 20 uM for 30 mins by LC/MS analysis; settings: 0.5 h
Cytochrome P450 2D6 = Cytochrome P450 2D6 (Homo sapiens, UniProt P10635); assay: Drug metabolism in human liver microsomes assessed as 1 uM quinidine-mediated inhibition of CYP2D6-mediated(R)-1-(4-(4-fluoro-2-(hydroxymethyl)-1H-indol-5-yloxy)-5-methylpyrrolo[1,2-f][1,2,4]triazin-6-yloxy)propan-2-ol formation at 2 and 20 uM for 30 mins by LC/MS analysis; settings: 0.5 h
Chain of Cytochrome P450 2D6 (P10635 whole entry): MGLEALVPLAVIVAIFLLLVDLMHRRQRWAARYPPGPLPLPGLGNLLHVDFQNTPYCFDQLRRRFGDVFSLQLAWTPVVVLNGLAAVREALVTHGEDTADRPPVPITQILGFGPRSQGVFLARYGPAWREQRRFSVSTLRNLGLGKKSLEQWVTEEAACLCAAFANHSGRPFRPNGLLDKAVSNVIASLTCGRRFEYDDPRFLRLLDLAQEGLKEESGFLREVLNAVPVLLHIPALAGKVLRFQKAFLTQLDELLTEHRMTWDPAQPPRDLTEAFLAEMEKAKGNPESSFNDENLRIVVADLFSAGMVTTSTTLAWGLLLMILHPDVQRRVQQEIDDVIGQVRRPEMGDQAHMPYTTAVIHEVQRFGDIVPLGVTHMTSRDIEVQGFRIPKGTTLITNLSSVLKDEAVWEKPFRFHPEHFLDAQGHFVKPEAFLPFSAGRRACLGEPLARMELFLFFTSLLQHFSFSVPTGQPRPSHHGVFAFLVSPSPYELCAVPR

Chain of Cytochrome P450 1A1 (P04798 whole entry): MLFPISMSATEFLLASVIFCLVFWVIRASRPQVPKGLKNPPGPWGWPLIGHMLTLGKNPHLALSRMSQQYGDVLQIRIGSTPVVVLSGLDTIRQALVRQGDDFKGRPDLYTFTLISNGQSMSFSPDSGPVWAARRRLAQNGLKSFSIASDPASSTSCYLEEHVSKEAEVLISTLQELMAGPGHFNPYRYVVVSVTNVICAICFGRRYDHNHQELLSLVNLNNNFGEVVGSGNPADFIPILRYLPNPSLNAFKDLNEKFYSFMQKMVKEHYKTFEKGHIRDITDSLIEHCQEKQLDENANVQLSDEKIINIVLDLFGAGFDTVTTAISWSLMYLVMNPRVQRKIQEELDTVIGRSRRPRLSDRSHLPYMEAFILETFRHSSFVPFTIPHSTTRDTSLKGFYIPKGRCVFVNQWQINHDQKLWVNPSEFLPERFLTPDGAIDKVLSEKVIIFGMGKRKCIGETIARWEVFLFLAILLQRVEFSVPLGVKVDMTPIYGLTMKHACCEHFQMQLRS
Chain of Sulfotransferase 2A1 (Q06520 whole entry): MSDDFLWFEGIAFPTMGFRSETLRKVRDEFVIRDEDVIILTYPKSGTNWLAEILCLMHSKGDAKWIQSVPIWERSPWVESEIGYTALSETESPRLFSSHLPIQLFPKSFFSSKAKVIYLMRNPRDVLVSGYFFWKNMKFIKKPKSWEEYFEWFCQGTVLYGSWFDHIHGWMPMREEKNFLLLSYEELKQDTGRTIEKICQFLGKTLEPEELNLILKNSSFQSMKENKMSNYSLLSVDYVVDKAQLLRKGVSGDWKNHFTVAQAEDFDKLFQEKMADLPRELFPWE
Chain of Cytochrome P450 2E1 (P05181 whole entry): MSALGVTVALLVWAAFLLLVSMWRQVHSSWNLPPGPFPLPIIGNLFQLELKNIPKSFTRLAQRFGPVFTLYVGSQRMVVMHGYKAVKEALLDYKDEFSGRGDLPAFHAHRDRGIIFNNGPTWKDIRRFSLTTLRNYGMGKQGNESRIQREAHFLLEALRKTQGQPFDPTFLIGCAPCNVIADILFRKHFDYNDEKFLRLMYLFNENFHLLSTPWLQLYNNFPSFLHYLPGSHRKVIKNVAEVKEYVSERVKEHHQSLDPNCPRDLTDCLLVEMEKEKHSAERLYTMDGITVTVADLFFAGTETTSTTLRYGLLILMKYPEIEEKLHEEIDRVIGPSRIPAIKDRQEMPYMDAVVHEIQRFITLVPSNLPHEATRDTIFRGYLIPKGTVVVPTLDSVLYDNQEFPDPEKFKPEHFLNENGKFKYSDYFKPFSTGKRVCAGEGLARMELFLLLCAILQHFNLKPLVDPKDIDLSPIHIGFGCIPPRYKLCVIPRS

Vmax [1]: 89.1 pmol/min
CLint [2]: 3.1 µL/min/mg
Drug metabolism (Liver microsome): metabolite_not_detected
Drug metabolism (Cytochrome P450 2C8): metabolite_detected
Drug metabolism (Cytochrome P450 1A2 [3]): metabolite_detected
Drug metabolism (Cytochrome P450 2B6): metabolite_detected
Drug metabolism (Cytochrome P450 1A1): metabolite_detected
Drug metabolism (Sulfotransferase 2A1): metabolite_detected
CL (Cytochrome P450 1A2 [4]): 0.031 µL/min
Drug metabolism (Cytochrome P450 2E1): metabolite_detected
Drug metabolism (Cytochrome P450 2D6): metabolite_detected
Compound: Cc1cc2c(F)c(Oc3ncnn4cc(OC[C@@H](C)O)c(C)c34)ccc2[nH]1 [BRIVANIB]
